This passage reports inhibition, IC50 and half-life results from ChEMBL document CHEMBL1921670, “Discovery and optimization of indole and 7-azaindoles as Rho kinase (ROCK) inhibitors (part-II)” (Bioorg Med Chem Lett, 2011).

In general, inhibition refers to the change of the read-out against control, counted positive when it falls. Usually IC50 stands for the concentration that inhibits the measured activity by half. As usually defined, the half-life is the time needed for the level to fall by half in the phase considered. Read a low half-life as fast loss.

CYP2D6, sequence (P10635 whole entry): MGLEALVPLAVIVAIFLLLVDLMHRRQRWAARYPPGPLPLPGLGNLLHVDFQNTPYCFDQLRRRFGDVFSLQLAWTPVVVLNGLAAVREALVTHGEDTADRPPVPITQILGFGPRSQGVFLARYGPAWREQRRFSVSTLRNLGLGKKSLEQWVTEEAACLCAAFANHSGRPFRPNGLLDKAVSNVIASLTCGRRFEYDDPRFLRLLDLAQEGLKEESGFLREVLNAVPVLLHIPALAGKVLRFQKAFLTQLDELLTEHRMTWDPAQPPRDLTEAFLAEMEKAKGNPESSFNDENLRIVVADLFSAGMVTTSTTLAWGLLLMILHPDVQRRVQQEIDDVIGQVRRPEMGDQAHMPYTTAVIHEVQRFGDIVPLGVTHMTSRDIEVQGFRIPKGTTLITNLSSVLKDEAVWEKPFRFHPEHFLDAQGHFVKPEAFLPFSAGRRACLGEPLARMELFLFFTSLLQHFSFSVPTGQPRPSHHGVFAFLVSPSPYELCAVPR
CYP3A4, sequence (P08684 whole entry): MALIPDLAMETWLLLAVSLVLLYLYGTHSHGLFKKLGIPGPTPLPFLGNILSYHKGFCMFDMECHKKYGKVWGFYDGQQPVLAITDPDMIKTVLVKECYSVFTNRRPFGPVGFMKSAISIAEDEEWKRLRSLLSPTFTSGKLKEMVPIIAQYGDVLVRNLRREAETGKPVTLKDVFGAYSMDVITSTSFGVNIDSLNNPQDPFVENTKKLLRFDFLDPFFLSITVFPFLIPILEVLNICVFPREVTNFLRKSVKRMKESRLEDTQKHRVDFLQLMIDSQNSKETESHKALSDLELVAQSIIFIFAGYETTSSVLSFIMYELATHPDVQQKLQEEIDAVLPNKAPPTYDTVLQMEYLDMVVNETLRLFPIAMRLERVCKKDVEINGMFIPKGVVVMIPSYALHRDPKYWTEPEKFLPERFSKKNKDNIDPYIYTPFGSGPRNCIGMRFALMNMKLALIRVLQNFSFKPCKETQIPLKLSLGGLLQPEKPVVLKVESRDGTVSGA
Rho-associated protein kinase 1, sequence (Q13464 whole entry): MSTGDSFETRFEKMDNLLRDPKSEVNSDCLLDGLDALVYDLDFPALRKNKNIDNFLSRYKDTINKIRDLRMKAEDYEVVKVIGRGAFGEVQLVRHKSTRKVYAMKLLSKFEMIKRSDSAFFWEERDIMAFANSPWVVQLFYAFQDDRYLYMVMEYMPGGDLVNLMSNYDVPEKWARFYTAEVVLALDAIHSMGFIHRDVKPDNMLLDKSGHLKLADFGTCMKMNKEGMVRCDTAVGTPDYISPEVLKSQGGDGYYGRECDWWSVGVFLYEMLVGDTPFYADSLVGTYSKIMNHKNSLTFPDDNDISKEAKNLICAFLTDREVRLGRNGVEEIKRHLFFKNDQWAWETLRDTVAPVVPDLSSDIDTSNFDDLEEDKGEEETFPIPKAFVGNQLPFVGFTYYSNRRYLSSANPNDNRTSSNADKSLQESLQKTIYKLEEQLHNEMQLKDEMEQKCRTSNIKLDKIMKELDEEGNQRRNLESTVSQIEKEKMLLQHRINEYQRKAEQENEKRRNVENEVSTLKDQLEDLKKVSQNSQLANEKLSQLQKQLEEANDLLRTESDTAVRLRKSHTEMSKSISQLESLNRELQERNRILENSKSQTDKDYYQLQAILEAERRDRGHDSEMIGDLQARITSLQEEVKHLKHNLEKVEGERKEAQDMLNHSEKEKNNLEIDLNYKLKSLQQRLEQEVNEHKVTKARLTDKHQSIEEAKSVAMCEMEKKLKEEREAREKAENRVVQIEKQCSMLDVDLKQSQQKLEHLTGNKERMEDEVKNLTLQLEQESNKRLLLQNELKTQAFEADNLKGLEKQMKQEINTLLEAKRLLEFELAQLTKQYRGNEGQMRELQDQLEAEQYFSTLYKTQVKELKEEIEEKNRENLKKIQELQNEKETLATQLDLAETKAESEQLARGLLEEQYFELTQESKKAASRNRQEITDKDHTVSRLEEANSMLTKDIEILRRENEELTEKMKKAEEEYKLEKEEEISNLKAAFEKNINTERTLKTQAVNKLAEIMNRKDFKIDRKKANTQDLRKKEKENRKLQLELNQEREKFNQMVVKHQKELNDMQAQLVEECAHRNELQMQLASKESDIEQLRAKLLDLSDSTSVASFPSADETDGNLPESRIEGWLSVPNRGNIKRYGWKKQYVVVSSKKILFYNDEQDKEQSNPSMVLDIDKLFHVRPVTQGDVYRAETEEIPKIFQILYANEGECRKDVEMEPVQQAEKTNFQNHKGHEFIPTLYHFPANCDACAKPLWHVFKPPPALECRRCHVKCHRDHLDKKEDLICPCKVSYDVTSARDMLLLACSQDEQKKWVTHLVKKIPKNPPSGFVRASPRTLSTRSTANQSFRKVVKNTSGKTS

The first data set has as its target CYP2D6 (Homo sapiens, UniProt P10635). Description: Inhibition of CYP2D6 at 10 uM. The data set is classed as ADME.
`COc1cccc(CNC(=O)c2[nH]c3nc(-c4cn[nH]c4)ccc3c2CN2CCN(C)CC2)c1`: the inhibition at 10 µM came to 60%.
On the same count and under the same terms, to `COc1cccc(CNC(=O)c2cn(C)c3nc(-c4cn[nH]c4)ccc23)c1` belongs 23%; to `COc1cccc(CNC(=O)c2cn(C)c3cc(-c4cn[nH]c4)ccc23)c1`, 53%.
Still for that read-out and setting: the value for `COc1cccc(CN(C)C(=O)c2cc3ccc(-c4cn[nH]c4)cc3[nH]2)c1` was 9%.
On the same count and under the same terms, the value for `COc1cccc(CNC(=O)c2cn(CCCO)c3cc(-c4cn[nH]c4)ccc23)c1` was 32%.
With `COc1cccc(CN(C(=O)c2c[nH]c3nc(-c4cn[nH]c4)ccc23)C2CC2)c1`, the inhibition at 10 µM amounted to 25%.
On to `COc1cccc(CN(C)C(=O)c2cc3ccc(-c4cn[nH]c4)nc3[nH]2)c1`, for which the inhibition at 10 µM came out at 52%.

The next data set deals with CYP2C9 (Homo sapiens, UniProt P11712). Description: Inhibition of CYP2C9 at 10 uM. The data set is classed as ADME.
CYP2C9, sequence (P11712 whole entry): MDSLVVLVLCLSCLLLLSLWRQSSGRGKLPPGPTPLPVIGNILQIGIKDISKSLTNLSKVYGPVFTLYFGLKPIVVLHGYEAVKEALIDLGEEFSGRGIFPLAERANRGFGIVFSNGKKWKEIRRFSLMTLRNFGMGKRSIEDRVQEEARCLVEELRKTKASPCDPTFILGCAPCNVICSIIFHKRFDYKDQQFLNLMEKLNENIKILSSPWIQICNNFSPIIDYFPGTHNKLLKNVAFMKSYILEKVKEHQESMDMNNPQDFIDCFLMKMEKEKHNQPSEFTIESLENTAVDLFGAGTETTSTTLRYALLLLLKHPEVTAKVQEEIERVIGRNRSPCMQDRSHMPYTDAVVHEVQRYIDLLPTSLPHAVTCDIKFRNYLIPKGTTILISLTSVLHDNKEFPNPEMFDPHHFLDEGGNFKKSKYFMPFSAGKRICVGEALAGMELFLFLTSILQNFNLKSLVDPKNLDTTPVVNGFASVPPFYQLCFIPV
Consider `COc1cccc(CNC(=O)c2[nH]c3nc(-c4cn[nH]c4)ccc3c2CN2CCN(C)CC2)c1`, for which the inhibition at 10 µM is -26%.
On the same count and under the same terms, the value for `COc1cccc(CNC(=O)c2cn(C)c3nc(-c4cn[nH]c4)ccc23)c1` was 77%; that for `COc1cccc(CNC(=O)c2cn(C)c3cc(-c4cn[nH]c4)ccc23)c1` was 93%.
The same measure, in the same setting: to `COc1cccc(CN(C)C(=O)c2cc3ccc(-c4cn[nH]c4)cc3[nH]2)c1` belongs 27%; to `COc1cccc(CNC(=O)c2cn(CCCO)c3cc(-c4cn[nH]c4)ccc23)c1`, 87%.
Still for that read-out and setting: to `COc1cccc(CN(C(=O)c2c[nH]c3nc(-c4cn[nH]c4)ccc23)C2CC2)c1` belongs 91%.
In the case of `COc1cccc(CN(C)C(=O)c2cc3ccc(-c4cn[nH]c4)nc3[nH]2)c1`, the inhibition at 10 µM came to 83%.

Tested on in another data set: not listed separately
Kind of data set: Inhibition of myosin light chain bisphosphorylation by cell-based assay.
As for `COc1cccc(CNC(=O)c2cn(C)c3cc(-c4cn[nH]c4)ccc23)c1`, the IC50 turned out to be 4 nM.
Same read-out and setting: the value for `COc1cccc(CN(C)C(=O)c2cc3ccc(-c4cn[nH]c4)cc3[nH]2)c1` was 70 nM; that for `COc1cccc(CN(C)C(=O)c2cc3ccc(-c4cn[nH]c4)nc3[nH]2)c1` was 25 nM.

The next data set addresses CYP3A4 (Homo sapiens, UniProt P08684). Kind of data set: Inhibition of CYP3A4 at 10 uM. The data set is classed as ADME.
Take `COc1cccc(CNC(=O)c2[nH]c3nc(-c4cn[nH]c4)ccc3c2CN2CCN(C)CC2)c1`: the inhibition at 10 µM was 34%.
Still for that read-out and setting: to `COc1cccc(CNC(=O)c2cn(C)c3nc(-c4cn[nH]c4)ccc23)c1` belongs 68%; to `COc1cccc(CNC(=O)c2cn(C)c3cc(-c4cn[nH]c4)ccc23)c1`, 87%; to `COc1cccc(CN(C)C(=O)c2cc3ccc(-c4cn[nH]c4)cc3[nH]2)c1`, 2%.
Same read-out and setting: to `COc1cccc(CNC(=O)c2cn(CCCO)c3cc(-c4cn[nH]c4)ccc23)c1` belongs 63%; to `COc1cccc(CN(C(=O)c2c[nH]c3nc(-c4cn[nH]c4)ccc23)C2CC2)c1`, 56%.
Still for that read-out and setting: the value for `COc1cccc(CN(C)C(=O)c2cc3ccc(-c4cn[nH]c4)nc3[nH]2)c1` was 27%.

Tested on in another data set: not listed separately
Kind of data set: Inhibition of PKA.
With `COc1cccc(CNC(=O)c2[nH]c3nc(-c4cn[nH]c4)ccc3c2CN2CCN(C)CC2)c1`, inhibition was half-maximal at 911 nM (IC50). This lies in the sub-micromolar range.
On the same count and under the same terms, the value for `COc1cccc(CNC(=O)c2cn(C)c3nc(-c4cn[nH]c4)ccc23)c1` was 720 nM; that for `COc1cccc(CNC(=O)c2cn(C)c3cc(-c4cn[nH]c4)ccc23)c1` was 87 nM; that for `COc1cccc(CN(C)C(=O)c2cc3ccc(-c4cn[nH]c4)cc3[nH]2)c1` was 2800 nM.
Same read-out and setting: to `COc1cccc(CNC(=O)c2cn(CCCO)c3cc(-c4cn[nH]c4)ccc23)c1` belongs 900 nM.
Compound `COc1cccc(CN(C(=O)c2c[nH]c3nc(-c4cn[nH]c4)ccc23)C2CC2)c1` registered an IC50 greater than 20000 nM.
The compound `COc1cccc(CN(C)C(=O)c2cc3ccc(-c4cn[nH]c4)nc3[nH]2)c1` had an IC50 of 570 nM.

The target of another data set is T1, CYP1A2 (Homo sapiens, UniProt P05177).
T1 sequence (P05177 whole entry): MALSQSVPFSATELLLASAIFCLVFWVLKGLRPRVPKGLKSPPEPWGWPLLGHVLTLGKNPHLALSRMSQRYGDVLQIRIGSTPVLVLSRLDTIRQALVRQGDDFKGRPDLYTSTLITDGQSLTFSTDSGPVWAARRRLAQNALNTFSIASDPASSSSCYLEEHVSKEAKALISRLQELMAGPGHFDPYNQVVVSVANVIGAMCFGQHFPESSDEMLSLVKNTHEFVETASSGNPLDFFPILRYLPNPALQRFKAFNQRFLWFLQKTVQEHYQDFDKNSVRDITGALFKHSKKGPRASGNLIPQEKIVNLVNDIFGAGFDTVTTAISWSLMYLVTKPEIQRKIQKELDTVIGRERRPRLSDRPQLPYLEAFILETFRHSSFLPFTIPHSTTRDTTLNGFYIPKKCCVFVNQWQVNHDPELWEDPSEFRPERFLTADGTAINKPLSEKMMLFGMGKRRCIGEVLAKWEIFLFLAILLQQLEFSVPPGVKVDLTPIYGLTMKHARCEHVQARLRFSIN
Kind of data set: Inhibition of CYP1A2 at 10 uM. The data set is classed as ADME.
Consider `COc1cccc(CNC(=O)c2[nH]c3nc(-c4cn[nH]c4)ccc3c2CN2CCN(C)CC2)c1`, for which the inhibition at 10 µM was -15%.
On the same count and under the same terms, to `COc1cccc(CNC(=O)c2cn(C)c3nc(-c4cn[nH]c4)ccc23)c1` belongs -2%; to `COc1cccc(CNC(=O)c2cn(C)c3cc(-c4cn[nH]c4)ccc23)c1`, 23%.
Turning to `COc1cccc(CN(C)C(=O)c2cc3ccc(-c4cn[nH]c4)cc3[nH]2)c1`, the inhibition at 10 µM was -7%.
Same read-out and setting: the value for `COc1cccc(CNC(=O)c2cn(CCCO)c3cc(-c4cn[nH]c4)ccc23)c1` was 71%; that for `COc1cccc(CN(C(=O)c2c[nH]c3nc(-c4cn[nH]c4)ccc23)C2CC2)c1` was -5%; that for `COc1cccc(CN(C)C(=O)c2cc3ccc(-c4cn[nH]c4)nc3[nH]2)c1` was 32%.

Another data set deals with Rho-associated protein kinase 2 (Homo sapiens, UniProt O75116). Kind of data set: Inhibition of ROCK2.
Rho-associated protein kinase 2, sequence (O75116 whole entry): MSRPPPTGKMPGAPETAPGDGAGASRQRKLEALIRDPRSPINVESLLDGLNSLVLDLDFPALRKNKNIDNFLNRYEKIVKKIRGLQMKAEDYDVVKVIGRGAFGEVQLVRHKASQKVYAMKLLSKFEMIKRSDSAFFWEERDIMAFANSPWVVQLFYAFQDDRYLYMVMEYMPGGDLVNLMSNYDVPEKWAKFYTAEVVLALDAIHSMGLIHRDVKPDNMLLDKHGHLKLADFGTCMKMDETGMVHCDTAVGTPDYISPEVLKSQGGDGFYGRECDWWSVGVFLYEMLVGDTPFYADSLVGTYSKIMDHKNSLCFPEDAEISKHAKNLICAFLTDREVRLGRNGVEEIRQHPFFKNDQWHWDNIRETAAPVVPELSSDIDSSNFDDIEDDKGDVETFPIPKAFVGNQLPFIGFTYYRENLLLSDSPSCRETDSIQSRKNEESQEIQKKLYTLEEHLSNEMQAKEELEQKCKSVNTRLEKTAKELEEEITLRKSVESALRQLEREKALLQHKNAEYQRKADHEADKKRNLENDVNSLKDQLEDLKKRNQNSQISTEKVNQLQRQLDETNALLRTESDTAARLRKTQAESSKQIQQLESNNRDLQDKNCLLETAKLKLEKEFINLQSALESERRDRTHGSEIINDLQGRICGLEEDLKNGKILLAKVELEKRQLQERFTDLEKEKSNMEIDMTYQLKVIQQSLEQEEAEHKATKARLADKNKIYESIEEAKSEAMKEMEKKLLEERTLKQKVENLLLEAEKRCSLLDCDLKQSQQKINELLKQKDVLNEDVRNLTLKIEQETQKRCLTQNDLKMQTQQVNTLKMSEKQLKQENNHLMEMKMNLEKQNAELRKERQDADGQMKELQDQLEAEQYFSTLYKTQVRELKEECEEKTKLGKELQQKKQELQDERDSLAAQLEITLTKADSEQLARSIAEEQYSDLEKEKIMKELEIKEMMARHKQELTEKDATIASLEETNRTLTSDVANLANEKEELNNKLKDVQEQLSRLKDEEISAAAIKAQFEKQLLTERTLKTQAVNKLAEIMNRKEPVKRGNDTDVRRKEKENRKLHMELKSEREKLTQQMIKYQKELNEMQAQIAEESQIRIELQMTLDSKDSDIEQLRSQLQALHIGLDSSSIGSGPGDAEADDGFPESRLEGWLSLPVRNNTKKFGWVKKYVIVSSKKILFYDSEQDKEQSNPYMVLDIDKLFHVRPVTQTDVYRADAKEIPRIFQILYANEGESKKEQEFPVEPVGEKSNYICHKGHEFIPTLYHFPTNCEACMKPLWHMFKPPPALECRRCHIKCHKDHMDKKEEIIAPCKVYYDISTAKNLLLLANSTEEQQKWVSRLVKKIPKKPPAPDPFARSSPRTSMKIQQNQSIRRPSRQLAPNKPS
`COc1cccc(CNC(=O)c2[nH]c3nc(-c4cn[nH]c4)ccc3c2CN2CCN(C)CC2)c1` returned an IC50 of 8 nM.
Still for that read-out and setting: to `COc1cccc(CNC(=O)c2cn(C)c3nc(-c4cn[nH]c4)ccc23)c1` belongs less than 1 nM; to `COc1cccc(CNC(=O)c2cn(C)c3cc(-c4cn[nH]c4)ccc23)c1`, less than 1 nM.
The same measure, in the same setting: to `COc1cccc(CN(C)C(=O)c2cc3ccc(-c4cn[nH]c4)cc3[nH]2)c1` belongs 3 nM; to `COc1cccc(CNC(=O)c2cn(CCCO)c3cc(-c4cn[nH]c4)ccc23)c1`, 1 nM.
The same measure, in the same setting: the value for `COc1cccc(CN(C(=O)c2c[nH]c3nc(-c4cn[nH]c4)ccc23)C2CC2)c1` was 6 nM.
In the case of `COc1cccc(CN(C)C(=O)c2cc3ccc(-c4cn[nH]c4)nc3[nH]2)c1`, 4 nM corresponded to half-maximal inhibition (IC50).

Another data set concerns the target Rho-associated protein kinase 1 (Homo sapiens, UniProt Q13464). Kind of data set: Inhibition of ROCK1.
`COc1cccc(CNC(=O)c2[nH]c3nc(-c4cn[nH]c4)ccc3c2CN2CCN(C)CC2)c1`: the IC50 was 39 nM.
On the same count and under the same terms, to `COc1cccc(CNC(=O)c2cn(C)c3nc(-c4cn[nH]c4)ccc23)c1` belongs less than 1 nM; to `COc1cccc(CNC(=O)c2cn(C)c3cc(-c4cn[nH]c4)ccc23)c1`, less than 1 nM; to `COc1cccc(CN(C)C(=O)c2cc3ccc(-c4cn[nH]c4)cc3[nH]2)c1`, 37 nM.
Same read-out and setting: to `COc1cccc(CNC(=O)c2cn(CCCO)c3cc(-c4cn[nH]c4)ccc23)c1` belongs 3 nM; to `COc1cccc(CN(C(=O)c2c[nH]c3nc(-c4cn[nH]c4)ccc23)C2CC2)c1`, 30 nM; to `COc1cccc(CN(C)C(=O)c2cc3ccc(-c4cn[nH]c4)nc3[nH]2)c1`, 27 nM.

Tested on in the next data set: not listed separately
Description: Half life in human liver microsomes. In kind it is ADME, Microsome. (Liver microsomes are a subcellular fraction often used to study metabolism.)
For the compound `COc1cccc(CNC(=O)c2[nH]c3nc(-c4cn[nH]c4)ccc3c2CN2CCN(C)CC2)c1`, the half-life turned out to be 1 min.
Still for that read-out and setting: the value for `COc1cccc(CNC(=O)c2cn(C)c3nc(-c4cn[nH]c4)ccc23)c1` was 13 min; that for `COc1cccc(CNC(=O)c2cn(C)c3cc(-c4cn[nH]c4)ccc23)c1` was 9 min; that for `COc1cccc(CN(C)C(=O)c2cc3ccc(-c4cn[nH]c4)cc3[nH]2)c1` was 46 min.
Consider `COc1cccc(CNC(=O)c2cn(CCCO)c3cc(-c4cn[nH]c4)ccc23)c1`, for which the half-life came out at 21 min. This half-life lies about 2.2-fold lower than the previous one.
Still for that read-out and setting: the value for `COc1cccc(CN(C(=O)c2c[nH]c3nc(-c4cn[nH]c4)ccc23)C2CC2)c1` was 9 min; that for `COc1cccc(CN(C)C(=O)c2cc3ccc(-c4cn[nH]c4)nc3[nH]2)c1` was 24 min.
